Experiment: in vitro
Details: human, hela cells, % viability

SMILES	viability at 28.5 h, 10 µM	viability at 28.5 h, 10 µM (bulk resorufin, single well)
Nc1nnc(-c2cccc(Cl)c2Cl)c(N)n1 [CBK011590]	85.8%	–
O=C1CC(c2ccccc2)c2c(n3ccsc3nc2=O)N1 (stereo not drawn) [CBK287923]	98.7%	–
CN1CCC(C#N)(c2ccccc2F)CC1 [CBK003511]	–	99.3%
O=C(NCc1ccccc1)N1CCC(n2cnc3cccnc32)CC1 [CBK282281]	100%	–
COc1ccc(C(NC(=O)Cc2ccc(-n3nnnc3C)cc2)c2ccccc2)cc1 (stereo not drawn) [CBK285537]	92.8%	–
Cc1cc(OCCCCNCCO)ccc1Cl [CBK033516]	111%	–
CCCn1ccnc1CN1CCC2(CC1)CC(C(=O)O)N(C(C)=O)C2 (stereo not drawn) [CBK306691]	92.9%	–
CC(C)(C)C(=O)N1CCc2cc(C(O)CN3CCCC3)ccc21 (stereo not drawn) [CBK282923]	93%	–
O=C(O)c1ccc(CNCCc2ccccc2)cc1 [CBK287215]	101%	–
Cc1c(O)cccc1Nc1cc(-c2cccc(N(C)C)c2)ncn1 [CBK036995]	94.3%	–
Cc1ccc(C(=O)NC[C@H]2O[C@@H](CC(=O)N3CCCC3)[C@H](O)[C@@H]2O)cc1 [CBK288912]	98.9%	–
O=C(Nc1nc(-c2ccccc2)cs1)c1ccc(Br)cc1 [CBK068003]	82.4%	–
C[C@H]1CN([C@H]2C[C@@H](O)[C@@H](CO)O2)C(=O)NC1=O [CBK201206]	96.9%	–
COc1ccc(C(=O)NCC(O)CN2CCOCC2)cc1[N+](=O)[O-] (stereo not drawn) [CBK265643]	105%	–
CCc1nc2c(OCCCN(C)S(C)(=O)=O)cccn2c1N(C)C(=O)c1ccco1 [CBK147435]	95%	–
Cc1nn2cc(CNC(=O)CN3CCOc4ccccc4C3)nc2s1 [CBK306921]	89%	–
CC(C)N1CCCC2(CCN(C(=O)Cc3c[nH]c(=O)n(C)c3=O)C2)C1=O (stereo not drawn) [CBK307115]	87.8%	–
Nc1ncc(-c2ccccc2)nc1NCc1cccnc1 [CBK063452]	116%	–

SMILES	viability at 28.5 h, 10 µM	viability at 28.5 h, 10 µM (bulk resorufin, single well)
FC(F)(F)c1ccc(OCCN2CCOCC2)nc1 [CBK113461]	101%	–
CC(=O)C(C(=O)Nc1ccc(F)cc1)C(c1cccc2ccccc12)C(C#N)C#N (stereo not drawn) [CBK262081]	90.4%	–
COC(=O)c1ccccc1NC(=O)CSc1nnc(-c2sc(N)nc2C)o1 [CBK266250]	100%	–
Cc1cc(C(F)(F)F)nc(NCc2ccco2)n1 [CBK269555]	105%	–
Cc1cccc(NC(=S)NNC(=O)CCC(=O)O)c1 [CBK261542]	85.1%	–
COc1ccc(OC)c(S(=O)(=O)N2CC[C@H]3CC(=O)N(CCN(C)C)CC[C@H]3C2)c1 [CBK288788]	104%	–
CC(C)[C@H](NC(=O)c1cc2cc(Cl)ccc2n1C)C(=O)N1CCC(C(=O)O)CC1 [CBK286771]	107%	–
Oc1ccc2ccccc2c1/C=N/Nc1nnn[nH]1 [CBK262028]	106%	–
O=S(=O)(Cc1ccccc1)Nc1nccnc1-c1cccs1 [CBK050766]	91.3%	–
COc1ccccc1-c1nccnc1N[C@H]1CCN(Cc2ccccc2)C1 [CBK037626]	94.4%	–
Cc1cc(C(=O)CSc2nc(=O)cc(O)n2CC(C)C)c(C)n1C [CBK295649]	85.4%	–
O=C(NCc1cccs1)C1(Cc2cccc(-c3ccc(F)c(F)c3)c2)CCOCC1 [CBK285569]	93.2%	–
O=S1(=O)CCC(Sc2nncc3ccccc23)C1 (stereo not drawn) [CBK021586]	92.2%	–
CCCCN1CCC(CNc2cc(C(F)(F)F)c3scc(C(=O)NC4CCC4)c3n2)CC1 [CBK034026C]	103%	–
CC(O)CNc1nccnc1-c1cccc(O)c1 (stereo not drawn) [CBK037055]	97.6%	–
CCN1C(=O)/C(=C/c2cc(Br)ccc2OCc2cccc([N+](=O)[O-])c2)NC1=S [CBK265138]	93.6%	–
Cc1ccc(Cl)c(N2CCN(CCCn3c(=S)[nH]c4ccccc4c3=O)CC2)c1 [CBK268011]	90%	–
C[C@H](Nc1cncc(-c2cccnc2)n1)c1ccccc1 [CBK065807]	96.7%	–
